Settings: Liquid, Vibrating wire viscometry

Cc1cccc(C)c1 [1,3-dimethylbenzene]
Settings	viscosity [mPa·s]
273.54 K, 10000 kPa	0.8601
273.54 K, 25000 kPa	0.9681
273.54 K, 30000 kPa	1.008
273.55 K, 1000 kPa	0.8029
273.55 K, 5000 kPa	0.8274
273.55 K, 15000 kPa	0.8952
273.55 K, 20000 kPa	0.9293
273.56 K, 100 kPa	0.7948
283.24 K, 100 kPa	0.7
283.24 K, 10000 kPa	0.7574
283.25 K, 1000 kPa	0.707
283.25 K, 5000 kPa	0.7291
283.25 K, 15000 kPa	0.7883
283.25 K, 20000 kPa	0.8196
283.25 K, 25000 kPa	0.853
283.25 K, 30000 kPa	0.8858
293.06 K, 1000 kPa	0.6255
293.06 K, 20000 kPa	0.7224
293.06 K, 25000 kPa	0.7497
293.07 K, 100 kPa	0.6215
293.07 K, 5000 kPa	0.644
293.07 K, 10000 kPa	0.6692
293.07 K, 15000 kPa	0.6957
293.07 K, 30000 kPa	0.7757
302.87 K, 30000 kPa	0.6903
302.88 K, 5000 kPa	0.5751
302.88 K, 25000 kPa	0.6673
302.89 K, 15000 kPa	0.6204
302.9 K, 100 kPa	0.5542
302.9 K, 1000 kPa	0.5571
302.9 K, 10000 kPa	0.598
302.9 K, 20000 kPa	0.645
313.29 K, 1000 kPa	0.4982
313.3 K, 100 kPa	0.4952
313.3 K, 5000 kPa	0.5142
313.3 K, 10000 kPa	0.5341
313.31 K, 15000 kPa	0.5548
313.31 K, 20000 kPa	0.5757
313.31 K, 25000 kPa	0.5968
313.31 K, 30000 kPa	0.618
323 K, 10000 kPa	0.4847
323.01 K, 100 kPa	0.4499
323.01 K, 1000 kPa	0.4531
323.01 K, 5000 kPa	0.467
323.02 K, 15000 kPa	0.5032
323.02 K, 20000 kPa	0.522
323.02 K, 25000 kPa	0.5411
323.02 K, 30000 kPa	0.5599
333.1 K, 100 kPa	0.4087
333.11 K, 1000 kPa	0.411
333.11 K, 5000 kPa	0.4237
333.11 K, 10000 kPa	0.4414
333.11 K, 15000 kPa	0.4585
333.11 K, 20000 kPa	0.4756
333.12 K, 25000 kPa	0.4931
333.12 K, 30000 kPa	0.5101
342.97 K, 20000 kPa	0.4363
342.97 K, 25000 kPa	0.4516
342.97 K, 30000 kPa	0.4678
342.98 K, 100 kPa	0.3731
342.98 K, 1000 kPa	0.3761
342.98 K, 5000 kPa	0.3882
342.98 K, 10000 kPa	0.4036
342.98 K, 15000 kPa	0.4205
352.88 K, 20000 kPa	0.4014
352.88 K, 25000 kPa	0.4162
352.88 K, 30000 kPa	0.431
352.89 K, 100 kPa	0.3436
352.89 K, 1000 kPa	0.346
352.89 K, 5000 kPa	0.3581
352.89 K, 10000 kPa	0.3728
352.89 K, 15000 kPa	0.3867
362.69 K, 100 kPa	0.3175
362.7 K, 1000 kPa	0.32
362.7 K, 5000 kPa	0.3307
362.7 K, 10000 kPa	0.3452
362.71 K, 15000 kPa	0.3587
362.71 K, 20000 kPa	0.3726
362.71 K, 25000 kPa	0.3859
362.71 K, 30000 kPa	0.3995
372.5 K, 100 kPa	0.2936
372.5 K, 1000 kPa	0.2964
372.51 K, 5000 kPa	0.307
372.51 K, 10000 kPa	0.3199
372.51 K, 15000 kPa	0.3331
372.51 K, 20000 kPa	0.3463
372.51 K, 25000 kPa	0.3587
372.51 K, 30000 kPa	0.3715

Source: the NIST ThermoML archive (doi:10.1016/j.jct.2015.11.027)
